Experimental data: the supplement of paper PMC9663587

Legend:
YKL-5-124 = compound: C=CC(=O)Nc1ccc(C(=O)Nc2[nH]nc3c2CN(C(=O)N[C@H](CN(C)C)c2ccccc2)C3(C)C)cc1 [YKL-5-124]; test: increase in dead-cell fraction, 72 h; higher = more death;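 note: breast cancer cell lines in 384-well plates, stained with Hoechst plus LIVE/DEAD far red dye and imaged, cells above an LDR intensity threshold counted dead, Hoechst-negative corpses included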
BSJ-03-123 = compound: CC(=O)c1c(C)c2cnc(Nc3ccc(N4CCN(CCOCCOCCOCCNC(=O)COc5cccc6c5C(=O)N(C5CCC(=O)NC5=O)C6=O)CC4)cn3)nc2n(C2CCCC2)c1=O [BSJ-03-123]; test: as above
[1] = compound: CC(=O)c1c(C)c2cnc(Nc3ccc(N4CCNCC4)cn3)nc2n(C2CCCC2)c1=O; test: as above
[2] = compound: CCN1CCN(Cc2ccc(Nc3ncc(F)c(-c4cc(F)c5nc(C)n(C(C)C)c5c4)n3)nc2)CC1; test: as above
Neratinib/HKI272 [3] = compound: T1, CCOc1cc2ncc(C#N)c(Nc3ccc(OCc4ccccn4)c(Cl)c3)c2cc1NC(=O)/C=C/CN(C)C [Neratinib/HKI272]; test: as above
[4] = compound: CCc1cnn2c(NCc3ccc[n+]([O-])c3)cc(N3CCCC[C@H]3CCO)nc12; test: as above
LEE011/Ribociclib = compound: CN(C)C(=O)c1cc2cnc(Nc3ccc(N4CCNCC4)cn3)nc2n1C1CCCC1 [LEE011/Ribociclib]; test: as above
THZ531 = compound: CN(C)C/C=C/C(=O)Nc1ccc(C(=O)N2CCC[C@@H](Nc3ncc(Cl)c(-c4c[nH]c5ccccc45)n3)C2)cc1 [THZ531]; test: as above
THZ1 [5] = compound: T2, CN(C)C/C=C/C(=O)Nc1ccc(C(=O)Nc2cccc(Nc3ncc(Cl)c(-c4c[nH]c5ccccc45)n3)c2)cc1 [THZ1]; test: as above
Flavopiridol = compound: CN1CC[C@H](c2c(O)cc(O)c3c(=O)cc(-c4ccccc4Cl)oc23)[C@H](O)C1 [Flavopiridol]; test: as above
Neratinib/HKI272 [6] = compound: T1, Neratinib/HKI272; test: GR value, 72 h; higher = faster growth (1 = untreated, <0 = killing);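 note: breast cancer and non-malignant breast epithelial lines, nine half-log doses, viable cells counted by Hoechst and LIVE/DEAD dye imaging versus time-zero plates and DMSO controls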
THZ1 [7] = compound: T2, THZ1; test: as above

MDAMB361 was tested, and the “increase in dead-cell fraction” value (YKL-5-124; 0.001 µM) was 0.0281, the “increase in dead-cell fraction” value (YKL-5-124; 0.003162 µM) was 0.0171 and the “increase in dead-cell fraction” value (YKL-5-124; 0.01 µM) was 0.0264. For the same cell line, the “increase in dead-cell fraction” value (YKL-5-124; 0.03162 µM) was 0.0267, the “increase in dead-cell fraction” value (YKL-5-124; 0.1 µM) was 0.0421 and the “increase in dead-cell fraction” value (YKL-5-124; 0.3162 µM) was 0.0191. For the same cell line, the “increase in dead-cell fraction” value (YKL-5-124; 1 µM) was 0.0241, the “increase in dead-cell fraction” value (YKL-5-124; 3.162 µM) was 0.0411 and the “increase in dead-cell fraction” value (YKL-5-124; 10 µM) was 0.371. The “increase in dead-cell fraction” value (BSJ-03-123; 0.001 µM) was 0.0068, the “increase in dead-cell fraction” value (BSJ-03-123; 0.003162 µM) was 0.0047 and the “increase in dead-cell fraction” value (BSJ-03-123; 0.01 µM) was 0.0008. For the same cell line, the “increase in dead-cell fraction” value (BSJ-03-123; 0.03162 µM) was 0.006, the “increase in dead-cell fraction” value (BSJ-03-123; 0.1 µM) was 0.0093 and the “increase in dead-cell fraction” value (BSJ-03-123; 0.3162 µM) was 0.0131. The “increase in dead-cell fraction” value (BSJ-03-123; 1 µM) was 0.0189, the “increase in dead-cell fraction” value (BSJ-03-123; 3.162 µM) was 0.0054 and the “increase in dead-cell fraction” value (BSJ-03-123; 10 µM) was 0.0713. For the same cell line, the “increase in dead-cell fraction” value ([1]; 0.0003162 µM) was 0.0032, the “increase in dead-cell fraction” value ([1]; 0.001 µM) was -0.0062 and the “increase in dead-cell fraction” value ([1]; 0.003162 µM) was -0.002. For the same cell line, the “increase in dead-cell fraction” value ([1]; 0.01 µM) was 0.0022, the “increase in dead-cell fraction” value ([1]; 0.03162 µM) was 0.0148 and the “increase in dead-cell fraction” value ([1]; 0.1 µM) was 0.0157. For the same cell line, the “increase in dead-cell fraction” value ([1]; 0.3162 µM) was 0.0051, the “increase in dead-cell fraction” value ([1]; 1 µM) was 0.0076 and the “increase in dead-cell fraction” value ([1]; 3.162 µM) was 0.0191. The “increase in dead-cell fraction” value ([2]; 0.001 µM) was -0.0026, the “increase in dead-cell fraction” value ([2]; 0.003162 µM) was -0.0006 and the “increase in dead-cell fraction” value ([2]; 0.01 µM) was 0.0107. The “increase in dead-cell fraction” value ([2]; 0.03162 µM) was 0.0026, the “increase in dead-cell fraction” value ([2]; 0.1 µM) was 0.0066 and the “increase in dead-cell fraction” value ([2]; 0.3162 µM) was 0.0052. The “increase in dead-cell fraction” value ([2]; 1 µM) was 0.0161, the “increase in dead-cell fraction” value ([2]; 3.162 µM) was 0.0884 and the “increase in dead-cell fraction” value ([2]; 10 µM) was 0.172. For the same cell line, the “increase in dead-cell fraction” value (Neratinib/HKI272 [3]; 0.0003162 µM) was 0.0068, the “increase in dead-cell fraction” value (Neratinib/HKI272 [3]; 0.001 µM) was 0.0063 and the “increase in dead-cell fraction” value (Neratinib/HKI272 [3]; 0.003162 µM) was 0.028. For the same cell line, the “increase in dead-cell fraction” value (Neratinib/HKI272 [3]; 0.01 µM) was 0.0198, the “increase in dead-cell fraction” value (Neratinib/HKI272 [3]; 0.03162 µM) was 0.0227 and the “increase in dead-cell fraction” value (Neratinib/HKI272 [3]; 0.1 µM) was 0.0339. For the same cell line, the “increase in dead-cell fraction” value (Neratinib/HKI272 [3]; 0.3162 µM) was 0.0406, the “increase in dead-cell fraction” value (Neratinib/HKI272 [3]; 1 µM) was 0.105 and the “increase in dead-cell fraction” value (Neratinib/HKI272 [3]; 3.162 µM) was 0.435. For the same cell line, the “increase in dead-cell fraction” value ([4]; 0.0001 µM) was 0.0019, the “increase in dead-cell fraction” value ([4]; 0.0003162 µM) was -0.0027 and the “increase in dead-cell fraction” value ([4]; 0.001 µM) was -0.0041. The “increase in dead-cell fraction” value ([4]; 0.003162 µM) was 0.0003, the “increase in dead-cell fraction” value ([4]; 0.01 µM) was 0.0259 and the “increase in dead-cell fraction” value ([4]; 0.03162 µM) was 0.303. The “increase in dead-cell fraction” value ([4]; 0.1 µM) was 0.148, the “increase in dead-cell fraction” value ([4]; 0.3162 µM) was 0.14 and the “increase in dead-cell fraction” value ([4]; 1 µM) was 0.153. For the same cell line, the “increase in dead-cell fraction” value (LEE011/Ribociclib; 0.001 µM) was 0.0114, the “increase in dead-cell fraction” value (LEE011/Ribociclib; 0.003162 µM) was 0.0106 and the “increase in dead-cell fraction” value (LEE011/Ribociclib; 0.01 µM) was 0.009. The “increase in dead-cell fraction” value (LEE011/Ribociclib; 0.03162 µM) was 0.0147, the “increase in dead-cell fraction” value (LEE011/Ribociclib; 0.1 µM) was 0.0129 and the “increase in dead-cell fraction” value (LEE011/Ribociclib; 0.3162 µM) was 0.0218. For the same cell line, the “increase in dead-cell fraction” value (LEE011/Ribociclib; 1 µM) was 0.0159, the “increase in dead-cell fraction” value (LEE011/Ribociclib; 3.162 µM) was 0.0012 and the “increase in dead-cell fraction” value (LEE011/Ribociclib; 10 µM) was 0.0018. For the same cell line, the “increase in dead-cell fraction” value (THZ531; 0.0001 µM) was -0.004, the “increase in dead-cell fraction” value (THZ531; 0.0003162 µM) was -0.0021 and the “increase in dead-cell fraction” value (THZ531; 0.001 µM) was 0.0045. The “increase in dead-cell fraction” value (THZ531; 0.003162 µM) was -0.0062, the “increase in dead-cell fraction” value (THZ531; 0.01 µM) was -0.0039 and the “increase in dead-cell fraction” value (THZ531; 0.03162 µM) was 0.0484. The “increase in dead-cell fraction” value (THZ531; 0.1 µM) was 0.454, the “increase in dead-cell fraction” value (THZ531; 0.3162 µM) was 0.219 and the “increase in dead-cell fraction” value (THZ531; 1 µM) was 0.106. The “increase in dead-cell fraction” value (THZ1 [5]; 0.0001 µM) was -0.0046, the “increase in dead-cell fraction” value (THZ1 [5]; 0.0003162 µM) was -0.0085 and the “increase in dead-cell fraction” value (THZ1 [5]; 0.001 µM) was -0.0074. The “increase in dead-cell fraction” value (THZ1 [5]; 0.003162 µM) was 0.0099, the “increase in dead-cell fraction” value (THZ1 [5]; 0.01 µM) was 0.016 and the “increase in dead-cell fraction” value (THZ1 [5]; 0.03162 µM) was 0.0299. The “increase in dead-cell fraction” value (THZ1 [5]; 0.1 µM) was 0.166, the “increase in dead-cell fraction” value (THZ1 [5]; 0.3162 µM) was 0.246 and the “increase in dead-cell fraction” value (THZ1 [5]; 1 µM) was 0.186. For the same cell line, the “increase in dead-cell fraction” value (Flavopiridol; 0.0001 µM) was 0.0029, the “increase in dead-cell fraction” value (Flavopiridol; 0.0003162 µM) was -0.0069 and the “increase in dead-cell fraction” value (Flavopiridol; 0.001 µM) was -0.0039. For the same cell line, the “increase in dead-cell fraction” value (Flavopiridol; 0.003162 µM) was 0.0101, the “increase in dead-cell fraction” value (Flavopiridol; 0.01 µM) was 0.0075 and the “increase in dead-cell fraction” value (Flavopiridol; 0.03162 µM) was 0.0039. For the same cell line, the “increase in dead-cell fraction” value (Flavopiridol; 0.1 µM) was -0.0034, the “increase in dead-cell fraction” value (Flavopiridol; 0.3162 µM) was 0.0273 and the “increase in dead-cell fraction” value (Flavopiridol; 1 µM) was 0.0899. The GR value (Neratinib/HKI272 [6]; 0.0003162 µM) was 0.976 GR, the GR value (Neratinib/HKI272 [6]; 0.001 µM) was 0.848 GR and the GR value (Neratinib/HKI272 [6]; 0.003162 µM) was 0.824 GR. For the same cell line, the GR value (Neratinib/HKI272 [6]; 0.01 µM) was 0.783 GR, the GR value (Neratinib/HKI272 [6]; 0.03162 µM) was 0.639 GR and the GR value (Neratinib/HKI272 [6]; 0.1 µM) was 0.514 GR. For the same cell line, the GR value (Neratinib/HKI272 [6]; 0.3162 µM) was 0.486 GR, the GR value (Neratinib/HKI272 [6]; 1 µM) was 0.241 GR and the GR value (Neratinib/HKI272 [6]; 3.162 µM) was -0.516 GR. For the same cell line, the GR value (THZ1 [7]; 0.0001 µM) was 0.939 GR, the GR value (THZ1 [7]; 0.0003162 µM) was 0.772 GR and the GR value (THZ1 [7]; 0.001 µM) was 0.986 GR. The GR value (THZ1 [7]; 0.003162 µM) was 0.521 GR, the GR value (THZ1 [7]; 0.01 µM) was 0.463 GR and the GR value (THZ1 [7]; 0.03162 µM) was 0.153 GR. The GR value (THZ1 [7]; 0.1 µM) was -0.511 GR, the GR value (THZ1 [7]; 0.3162 µM) was -0.804 GR and the GR value (THZ1 [7]; 1 µM) was -0.71 GR.
